Article PMC2737262 (Bioorganic & medicinal chemistry letters, 2009)

Experiments:
[1] = tested on: wild-type HIV-1 IIIB in MT-2 human T-cells; assay: MTT colorimetric assay, survival of HIV-infected MT-2 cells; format: cell-based

Q: With `CC[C@H](C)[C@@H](CC(=O)N[C@@H](CCC(=O)O)CC(=O)O)NC(=O)C[C@@H](NC(=O)C[C@H](CCCN)NC(=O)C[C@H](Cc1c[nH]c2ccccc12)NC(=O)C[C@@H](NC(=O)C[C@H](CCC(=O)O)NC(=O)C[C@H](Cc1c[nH]c2ccccc12)NC(=O)C[C@@H](NC(=O)C[C@@H](N)CCCN)C(C)C)C(C)C)C(C)C` [βWWI-1] as the compound, how does the CC50 (MT-2 cells) read?
A: 100 ± 19.6 µM

Q: For `CC[C@H](C)[C@@H](CC(=O)N[C@@H](CCC(=O)O)CC(=O)O)NC(=O)C[C@@H](NC(=O)C[C@H](CCCN)NC(=O)C[C@H](Cc1cccc(C(F)(F)F)c1)NC(=O)C[C@@H](NC(=O)C[C@H](CCC(=O)O)NC(=O)C[C@H](Cc1c[nH]c2ccccc12)NC(=O)C[C@@H](NC(=O)C[C@@H](N)CCCN)C(C)C)C(C)C)C(C)C` [βWXI-a], which CC50 (MT-2 cells) is on record?
A: 150 ± 3.3 µM

Q: How did the CC50 (MT-2 cells) turn out when `CC[C@H](C)[C@@H](CC(=O)N[C@@H](CCC(=O)O)CC(=O)O)NC(=O)C[C@@H](NC(=O)C[C@H](CCCN)NC(=O)C[C@H](Cc1cccnc1)NC(=O)C[C@@H](NC(=O)C[C@H](CCC(=O)O)NC(=O)C[C@H](Cc1c[nH]c2ccccc12)NC(=O)C[C@@H](NC(=O)C[C@@H](N)CCCN)C(C)C)C(C)C)C(C)C` [βWXI-b] was run?
A: > 250 µM

Q: enfuvirtide was tested. Which EC50 [1] did it give?
A: 0.0375 µM
